Experimental data: patent US10611748B2, “Xanthone derivatives for the treatment of hepatitis B virus disease” (Hoffmann-La Roche Inc., priority 2017, dated 2020)

How the values were obtained:
[1] = tested on: extracellular HBeAg level (surrogate marker for cccDNA) in HepDES19 cells; test: HepDES19 primary screen assay; assay type: cell-based, HBV; conditions: Hepatitis B virus, 120 h, 5 days compound incubation, HBeAg ELISA
Method in brief: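 HepDES19 cells, Tet-withdrawn 8 days to induce pgRNA, then seeded 24 h before dosing with half-log compound dilutions (1% DMSO final) for 5 days at 37 °C. Extracellular HBeAg by ELISA, viability by CCK-8; IC50 from 4-parameter logistic fit.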

[2] = tested on: cccDNA level in HepDES19 cells; test: cccDNA Southern Blot assay; assay type: cell-based, HBV; conditions: 5 days' compound treatment, Hirt DNA, serial dilutions
Procedure: HepDES19 cells were seeded at 4×10^6 cells per T150 in the culture medium (Dulbecco's Modified Eagle Medium: Nutrient Mixture F-12 (DMEM:F12, Gibco Cat. 11320-82), 10% Fetal Bovine Serum (FBS, Clontech Cat. 631101), 0.1 mM Non-Essential Amino Acids Solution (NEAA, Gibco Cat. 11140-050), […] Penicillin-Streptomycin (PS, Invitrogen Cat. 15140-163), 500 μg/mL Geneticin (G418, Invitrogen Cat. 10131-027) in the absence of Tet for 8 days. These cells were seeded at the density of 1×10^6 cells per well in 6-well plate. At 24 hrs after seeding, serial dilutions of compounds made with DMSO (Sigma, Cat. D2650) were further diluted with the same culture medium as described above before they were added to the cells to reach desired final compound concentrations and 1% DMSO concentration. After 5 days' compound treatment, the cells growing in one well from 6-well plate were re-suspended with 500 μL re-suspension buffer (50 mM tris[hydroxymethyl]aminomethane pH 7.5), 10 mM ethylenediaminetetraacetic acid (EDTA), 50 μg/mL RNase A (Qiagen, Cat. 158922). 500 μL of 1.2% sodium dodecyl sulfate (SDS) was then added into the re-suspended cells to lyse the cells. After 15 minutes' incubation, 700 μL precipitation buffer (3M cesium chloride, 1M potassium acetate, 0.67M acetic acid) was added and the lysate was incubated at 4° C. for 2 h. The lysate was centrifuged at 15000 revolutions per minute (RPM) at 4° C. for 15 minutes. The supernatant was collected and loaded onto Qiagen miniprep columns (QIAprep spin Mini prep kit, Cat. No. 27016). After centrifugation for 1 minute at 15000 RPM, the column was washed once with 750 µL wash buffer PE from QIAprep spin Mini prep kit. 80 μL of double distilled water was loaded to the columns to elute Hirt DNA.
Hirt DNA of each sample was loaded into 1.2% lx tris-acetate electrophoresis (TAE) agarose gel and separated at 90 voltages for 3 hours. The gel was then treated in 50 mM NaAc—HAc, pH4.2 for 30 min at room temperature (RT), and then denatured by soaking in denaturation buffer (0.5 M sodium hydroxide, 1.5 M sodium chloride) at RT for 30-45 min. The gel was then treated with neutralization buffer (1M tris[hydroxymethyl]aminomethane pH7.4 and 1.5M NaCl) at RT for 30 to 45 min.
The gel was transferred onto a pre-wet Nylon membrane (GE life science, Hybond N+) by capillary transfer method overnight, followed by UV crosslinking. The membrane was transferred into a hybridization tube, then rinsed with double distilled water at 60° C. for 5 mins. 10 mL of hybridization buffer (Lab kits, China) was added, the resulting sample was rotated in hybridization oven at 60° C. for 1 hour. Digoxigenin (DIG)-labelled HBV probe (SEQ ID NO: 1) was denatured at 95° C. for 10 minutes, and then 7 μL of denatured probe was added to the hybridization tube, which was rotated in hybridization oven at 60° C. overnight.
On the second day, the membrane was washed according to the procedure of DIG wash and block buffer set kit (Roche, Cat. 11 585 762 001), and then incubated with 50 mL antibody solution (Antibody anti-Digoxigenin-AP Fab fragment (Roche Cat. 11093274910) diluted in fresh 1× blocking buffer at 1:10,000) for 1 hour. The membrane was washed with 50 mL washing buffer (1× Maleic buffer with 0.3% Tween-20) for 15 minutes twice, and equilibrated with 20 mL detection buffer (0.1M tris[hydroxymethyl]aminomethane pH9.5, 0.1M sodium chloride) for 5 minutes. CDP-Star substrate (Roche, Cat. 12041677001) was added to the membrane for 5 minutes, and then the membrane was scanned by Bio-Rad Visualize Image System (Biorad, ChemiDoc-MP, Serial No. 731BR00916).

Compound	IC50 [1]	cccDNA level in HepDES19 cells (Southern Blot) [2]
O=C(O)C1CCN(c2ccc3c(=O)c4cccc(Cl)c4oc3c2)C1 (stereo not shown) [Example 2, 1-(5-chloro-9-oxo-xanthen-3-yl)pyrrolidine-3-carboxylic acid]	2.18 µM	dose-dependently reduced cccDNA level
O=C(O)[C@@H]1CCN(c2ccc3c(=O)c4cccc(Cl)c4oc3c2)C1 [Example 3, (3R)-1-(5-chloro-9-oxo-xanthen-3-yl)pyrrolidine-3-carboxylic acid]	1.24 µM	dose-dependently reduced cccDNA level
O=C(O)[C@H]1CCN(c2ccc3c(=O)c4cccc(Cl)c4oc3c2)C1 [Example 4, (3S)-1-(5-chloro-9-oxo-xanthen-3-yl)pyrrolidine-3-carboxylic acid]	2.18 µM	dose-dependently reduced cccDNA level
O=C(O)C1CCN(c2ccc3c(=O)c4cccc(F)c4oc3c2)C1 (stereo not shown) [Example 5, 1-(5-fluoro-9-oxo-xanthen-3-yl)pyrrolidine-3-carboxylic acid]	3.33 µM	dose-dependently reduced cccDNA level
O=C(O)C1CCN(c2ccc3c(=O)c4c(Cl)ccc(Cl)c4oc3c2)C1 (stereo not shown) [Example 26, 1-(5,8-dichloro-9-oxo-xanthen-3-yl)pyrrolidine-3-carboxylic Acid]	2.36 µM	dose-dependently reduced cccDNA level
